In US20250109127A1, “METHODS OF USE OF PHENOXYPROPYLAMINE COMPOUNDS TO TREAT DEPRESSION” (Minerva Neurosciences, Inc., priority 2013, published 2025):
Values joined by “and” are separate entries in the source; they are usually repeats but may differ in a detail not shown here. Identical values can stand only once. Counter-ions that a name gives are not always drawn.

Test system: norepinephrin release in the rat prefrontal cortex
Assay: Microdialysis: norepinephrine release in prefrontal cortex after I.P. administration
Type: in vivo
Details: for Norepinephrin release, MEAN / Norepinephrin release, individual animals: 3 mg/kg IP; for Norepinephrin release, MEAN: n = 8; for Norepinephrin release, individual animals: per animal R#15,16,21,22,27,28,09,10; for Norepinephrin release, individual animals / NOREPINEPHRIN in dialysate, individual animals: hydrochloride; for NOREPINEPHRIN in dialysate, individual animals: 0.1 mg/kg
Protocol: The aim of the study was to evaluate, using microdialysis, the effects of an intraperitoneal (I.P.) administration in rats of three different doses of SON-117 on dopamine and its metabolites, serotonin and its metabolite (5-HIAA), and norepinephrine levels in prefrontal cortex.
Thirty-two adult male Wistar rats were used for the whole study (4 groups of eight animals planned for the study, Table 1).
Surgery was performed on rats weighing about 300 g at the beginning of the experiments. Rats were anaesthetized with Ketamine (50 mg/kg) & Xylazine (15 mg/kg) by intramuscular administration. The animals were placed in a stereotaxic apparatus in the flat-skull position at a constant setting of −3.3 mm between ear bars and the incisor bar. The animals were treated with a local anesthesic (xylocaine 1%, Astra Zeneca) and an analgesic (Temgesic, from Schering Plough, 0.05 mg/kg, s.c.). A rostrocaudal midline incision was made with a lancet to expose the dorsal skull surface. The “stereotaxic zero” was defined by the Bregma in accordance with Paxinos and Watson's atlas (1986). A hole was drilled in the skull with a drill and the meninges were pierced with a sterile needle to implant a CMA12 guide cannula which later received the dialysis probe.
Coordinates used for implanting guide cannula in prefrontal cortex from Bregma were anteroposterior 3.7 mm, mediolateral 0.8 mm, and dorsoventral −2 mm (top of the probe was at −5 mm). The guide cannula was fixed to the skull with two stainless steel screws (1.88 mm outside diameter) anchored. An application of dental cement was added. A plastic collar allowed each animal to be tethered to a Swivel assembly of the CMA 120 awake animal system. Following surgery, rats were kept in individual cages and allowed to recover for a minimum of 3-5 days before the experimentation. The rats were handled and put in plastic bowl for 10 min at least every day to habituate the animals to their new environment for the dialysis. An I.P. administration with saline was also performed every day.
Dialysis probes (CMA12/3 mm, membrane, 20 kD cut-off, Carnegie Medicine, Stockholm, Sweden), were carefully washed before inserting into the guide cannula. The wash was performed with the artificial cerebrospinal fluid (aCSF) medium (NaCl 147 mM, KCl 2.7 mM, CaCl2 1.2 mM, MgCl2 0.85 mM) at room temperature. The dialysis system was then equilibrated at 20° C. at a perfusion rate of 1 μl/min with a Carnegie pump (CMA100). All catheters (FEP tubing, internal volume of 1.2 μl/10 cm, and tubing adaptors) used for microdialysis were treated in the same conditions.
The probes duly prepared were inserted into the guide cannula and the CMA120 Swivel assembly secured to the animal using a plastic collar. Flow through the dialysis probe with aCSF was maintained at a rate of 1 μl/min during the whole experimentation. The first four fractions (corresponding to 2 hours) were discarded to avoid the effects of parenchymal disturbance and to ensure that an approximate steady-state level was reached. Fractions were then collected over a period of 8.5 h during which time the animals remained quiet. The dialysates were automatically collected with an autosampler (microfraction collector CMA 140, Carnegie Medicin) and stored at −80° C. until analysis. […] Perfusion was then maintained for 7 hours with aCSF. The dialysates (30 μl) were collected into 300 μl vials, transferred into dry ice and then kept frozen (−80° C.) until analysis. Frozen samples were shipped to a partner for analysis. At the end of the microdialysis study, a PBS with colored ink was perfused through the probe in order to visualize the dialyzed area.
Catecholamine assay: Concentrations of dopamine, DOPAC, HVA, 5-HIAA, 5-HT, and norepinephrin were determined for each sample by HPLC coupled with electrochemical detection. […]

[1] = SON-117 0.1 mg/kg I.P., T0-T30 min
[2] = SON-117 0.1 mg/kg I.P., T30-T1 h

In the case of `Cc1nnc(-c2cc3c(OC[C@@H](O)CN4CCC(c5ccc(Cl)c(Cl)c5)CC4)cccc3o2)o1` [SON-117, (S)-1-(4-(3,4-dichlorophenyl)piperidino)-3-(2-(5-methyl-1,3,4-oxadiazol-2-yl)benzo(b)furan-4-yloxy)-2-propanol hydrochloride], the “Norepinephrin release, MEAN” value (T3 h 30-T4 h) is reported as 96.91 % of respective basal, the “Norepinephrin release, individual animals” value (T3 h 30-T4 h) is reported as 92.25 % of respective basal and 96.09 % of respective basal and 81.54 % of respective basal and 98.50 % of respective basal and 84.78 % of respective basal and 103.12 % of respective basal and 98.12 % of respective basal and 120.87 % of respective basal and the “Norepinephrin release, MEAN” value (T3 h-T3 h 30) is reported as 98.58 % of respective basal. The “Norepinephrin release, individual animals” value (T3 h-T3 h 30) was 105.14 % of respective basal and 113.23 % of respective basal and 79.41 % of respective basal and 94.38 % of respective basal and 76.17 % of respective basal and 100.68 % of respective basal and 93.69 % of respective basal and 125.93 % of respective basal, the “Norepinephrin release, MEAN” value (T4 h 30-T5 h) was 97.28 % of respective basal and the “Norepinephrin release, individual animals” value (T4 h 30-T5 h) was 58.60 % of respective basal and 125.43 % of respective basal and 101.68 % of respective basal and 87.38 % of respective basal and 80.27 % of respective basal and 104.69 % of respective basal and 112.63 % of respective basal and 107.59 % of respective basal. The “Norepinephrin release, MEAN” value (T4 h-T4 h 30) was 95.48 % of respective basal, the “Norepinephrin release, individual animals” value (T4 h-T4 h 30) was 62.13 % of respective basal and 91.42 % of respective basal and 88.64 % of respective basal and 99.58 % of respective basal and 82.26 % of respective basal and 99.52 % of respective basal and 111.02 % of respective basal and 129.30 % of respective basal and the “Norepinephrin release, MEAN” value (T5 h 30-T6 h) was 96.42 % of respective basal. The “Norepinephrin release, individual animals” value (T5 h 30-T6 h) was 82.50 % of respective basal and 100.18 % of respective basal and 65.95 % of respective basal and 85.98 % of respective basal and 75.91 % of respective basal and 86.97 % of respective basal and 139.22 % of respective basal and 134.66 % of respective basal, the “Norepinephrin release, MEAN” value (T5 h-T5 h 30) was 90.72 % of respective basal and the “Norepinephrin release, individual animals” value (T5 h-T5 h 30) was 87.73 % of respective basal and 105.81 % of respective basal and 60.65 % of respective basal and 89.96 % of respective basal and 73.79 % of respective basal and 96.43 % of respective basal and 137.91 % of respective basal and 93.51 % of respective basal. The “Norepinephrin release, MEAN” value (T6 h 30-T7 h) was 97.32 % of respective basal, the “Norepinephrin release, individual animals” value (T6 h 30-T7 h) was 66.13 % of respective basal and 133.14 % of respective basal and 93.99 % of respective basal and 95.87 % of respective basal and 77.85 % of respective basal and the “Norepinephrin release, MEAN” value (T6 h-T6 h 30) was 98.56 % of respective basal. The “Norepinephrin release, individual animals” value (T6 h-T6 h 30) was 78.64 % of respective basal and 120.89 % of respective basal and 90.25 % of respective basal and 94.88 % of respective basal and 80.09 % of respective basal and 93.58 % of respective basal and 131.29 % of respective basal, the “Norepinephrin release, MEAN” value (T-30 min-T0 (before administration)) was 97.42 % of respective basal and the “Norepinephrin release, MEAN” value (T-1 h 30-T-1 h (before administration)) was 102.02 % of respective basal. The “Norepinephrin release, MEAN” value (T-1 h-T-30 min (before administration)) was 100.56 % of respective basal, the “NE post injection levels vs mean pre-injection value” (SON-117 0.1 mg/kg I.P.) was “no statistically significant differences” and the “NOREPINEPHRIN in dialysate, MEAN” value [1] was 82.85 % of respective basal. The “NOREPINEPHRIN in dialysate, individual animals” value [1] was 92.79 % of respective basal and 99.624 % of respective basal and 74.34 % of respective basal and 64.40 % of respective basal and 84.29 % of respective basal and 81.69 % of respective basal, the “NOREPINEPHRIN in dialysate, MEAN” value [2] was 95.58 % of respective basal and the “NOREPINEPHRIN in dialysate, individual animals” value [2] was 105.21 % of respective basal and 96.78 % of respective basal and 87.94 % of respective basal and 101.10 % of respective basal and 90.37 % of respective basal and 88.40 % of respective basal and 114.24 % of respective basal and 80.61 % of respective basal. The “NOREPINEPHRIN in dialysate, MEAN” value (SON-117 0.1 mg/kg I.P., T1 h 30-T2 h) was 81.28 % of respective basal.
